Here are results for two compounds from patent US7196112B2, “Cell adhesion inhibitors” (Biogen Idec MA Inc., priority 2004, dated 2007).

One data set deals with T1, α2β1 (Homo sapiens, UniProt P05556+P17301).
T1 construct: expressed in transfected cells; host or cells: K562 cells transfected with human α2 integrin chain (gift from M. Hemler)
Description: α2β1/collagen I cell adhesion assay (K562 transfected with human α2 integrin chain). The class given is cell-based. The following applies: adhesion format, 1 mM MnCl2. As for the experimental part: (§1) The ability of test compounds to block α2β1/collagen I and α1β1/collagen IV interactions were evaluated in cell adhesion assays. Collagen I and collagen IV were immobilized onto a 96-well Corning Easy Wash plate (Corning Cat. No. 25801). Human integrin-expressing cell lines (2×10^5/well) were labeled with a fluorescent compound, 2 μM BCECF-AM (Molecular Probes, Eugene, Oreg., Cat# B1150), and added with or without test compounds. After 30 minutes, the plates were washed, and bound cells quantified in a Cytofluor fluorescence plate reader. The assay buffer was TRIS-buffered saline (TBS: 24 mM TRIS, 137 mM NaCl, 2.7 mM KCl, 2 mM glucose, 0.1% BSA, pH 7.4), containing 1 mM MnCl2. The specificity of binding was controlled for using integrin specific neutralizing monoclonal antibodies. The antibodies were run at 10 μg/mL on each day of the assay and were as follows: anti-α4β1, mAb HP1/2 (Biogen); anti-α2β1, mAb 26G8 (Biogen); and α1β1, mAb AJH10 (Biogen).
(§2) The results presented in Table 3 summarize the integrin selectivity for PEGylated inhibitors. The selectivity of the PEGylated inhibitors for the four integrins indicated were tested in adhesion formats for α1β1 and α2β1, and by direct binding for α4β7. Serial dilutions of each compound were tested and IC50 values calculated from the concentration dependence of the inhibition curves. […]

The target in a further data set is α1β1 (Homo sapiens, UniProt P05556+P56199). Nature of the data set: α1β1/collagen IV cell adhesion assay (K562 transfected with human α1-integrin chain). Format: cell-based. The following applies: adhesion format, 1 mM MnCl2. As for the experimental part: as §1, §2
A short description of data set [1]: Pharmacokinetics in female Lewis rats, noncompartmental analysis. The following applies: rat, in vivo. As for the experimental part:
Blood samples (250 μL/bleed) were obtained at specific timepoints after administration. For compound H, blood samples were drawn at 0, 8 minutes, 15 minutes, 30 minutes, and after 1 hour, 2, 4, 6, 8, 24, 32, 48, 72 and 168 hours following i.v. administration, and 1, 2, 4, 6, 8, 24, 32, 48, and 72 hours following s.c. administration. Serum samples were analyzed for compound H levels using an electrochemiluminescence assay. PK parameters were calculated from the […] data by noncompartmental analysis. PK parameters include CMAX (maximum serum concentration), tMAX (time to achieve maximum serum concentration), CL (systemic clearance), Vss (volume of distribution at steady state), t1/2 (terminal phase half-life), and bioavailability. Area under the curve (AUC) was calculated using the trapezoidal rule. Percent bioavailability was calculated from the following equation: (AUCextravascular/AUCIV)×(DoseIV/Doseextravascular)×100. For compound R^1, blood samples were drawn and analyzed as previously described (see Leone, D. R., et al. (2003) J. Pharmacol. Exp. Ther. 305:1150–1162).
Dilutions of test samples in 50 mM HEPES pH 7.5, 100 mM NaCl, 0.1% Triton X-100, 1 mM MnCl2, 1% rat plasma, 50 ng/mL α4β1 and 0.1 μg/mL ruthenium labeled mAb B5G10 were incubated at room temperature for 20 min. 0.5 nM A-biotin was added and samples were incubated for 60 minutes at room temperature. 50 μL of a 0.5 mg/mL solution of Dynabeads M-280 Streptavidin beads (Cat No. 402–175-02, Igen, Inc., Gaithersburg, Md.) that have been prepared in assay buffer containing 8% rat plasma was added and the samples were incubated for 30 minutes at room temperature with constant mixing. 150 μL of Origen assay buffer was added and samples were analyzed in a model 1100–1000 Origen analyzer (Igen, Inc) following the manufacturer's instructions. Concentrations of compound H were interpolated from a standard curve generated with compound H that had been diluted with plasma.
The pharmacokinetic properties of compounds H and R were evaluated by noncompartmental analysis following i.v. and s.c. administration in female Lewis rats (FIG. 2). […] Compound R was rapidly cleared from circulation.

For the next data set, the target named is α4β1 (Homo sapiens, UniProt P05556+P13612). Nature of the data set: VCAM-Ig direct binding assay (DBA), Jurkat cells.
The subject of a further data set is lymphocyte count. Description: Lymphocyte counts following inhibitor treatment (lymphocytosis). Format: in vivo, rat. To be noted: 30 mg/kg s.c., single dose. As for the experimental part: Female Lewis rats were injected with a single dose of either compound H (1 mg/kg, s.c in PBS), or compound R (30 mg/kg, s.c., in TRIS/lactose) or with their respective vehicles at time 0. At each timepoint, 0.3 mL blood from triplicate animals was drawn from the jugular vein without anesthesia and collected into Capiject purple-top microtainer tubes containing EDTA (Terumo Medical Corporation #T-MQK). […] samples were analyzed for lymphocyte count using an Abbott CellDyn 3500 cell analyzer. Blood samples from the compound H-treated animals were drawn at 4 hours, 8 hours, 12 hours, and on days 1, 2, 3, 4, 5, 6, 7, 8, and 9 and for the compound R-treated animals after 2, 6, 24, and 48 h.
Administration of compounds R and H to rats produced an α4β1-integrin dependent lymphocytosis that was sustained as long as sufficient concentrations of the inhibitors were maintained in circulation. From previous studies >90% of α4β1 receptors are estimated to be occupied to maintain lymphocytosis and therefore a target concentration of greater than or equal to 10 ng/mL compound needs to be maintained (see Leone, D. R., et al. (2003) J. Pharmacol. Exp. Ther. 305:1150–1162). […] A 2–3 fold increase in lymphocyte levels was observed. […] Elevated lymphocyte levels were maintained for 6 days. By day 9 lymphocyte levels had returned to normal. […]

For the next data set, the system named is EAE. Description: Rat EAE model induced with myelin basic protein peptide. The class given is in vivo. To be noted: daily 30 mg/kg s.c.

Some results are limits rather than exact numbers.

Sequence of α4β1 (P13612 34-1032): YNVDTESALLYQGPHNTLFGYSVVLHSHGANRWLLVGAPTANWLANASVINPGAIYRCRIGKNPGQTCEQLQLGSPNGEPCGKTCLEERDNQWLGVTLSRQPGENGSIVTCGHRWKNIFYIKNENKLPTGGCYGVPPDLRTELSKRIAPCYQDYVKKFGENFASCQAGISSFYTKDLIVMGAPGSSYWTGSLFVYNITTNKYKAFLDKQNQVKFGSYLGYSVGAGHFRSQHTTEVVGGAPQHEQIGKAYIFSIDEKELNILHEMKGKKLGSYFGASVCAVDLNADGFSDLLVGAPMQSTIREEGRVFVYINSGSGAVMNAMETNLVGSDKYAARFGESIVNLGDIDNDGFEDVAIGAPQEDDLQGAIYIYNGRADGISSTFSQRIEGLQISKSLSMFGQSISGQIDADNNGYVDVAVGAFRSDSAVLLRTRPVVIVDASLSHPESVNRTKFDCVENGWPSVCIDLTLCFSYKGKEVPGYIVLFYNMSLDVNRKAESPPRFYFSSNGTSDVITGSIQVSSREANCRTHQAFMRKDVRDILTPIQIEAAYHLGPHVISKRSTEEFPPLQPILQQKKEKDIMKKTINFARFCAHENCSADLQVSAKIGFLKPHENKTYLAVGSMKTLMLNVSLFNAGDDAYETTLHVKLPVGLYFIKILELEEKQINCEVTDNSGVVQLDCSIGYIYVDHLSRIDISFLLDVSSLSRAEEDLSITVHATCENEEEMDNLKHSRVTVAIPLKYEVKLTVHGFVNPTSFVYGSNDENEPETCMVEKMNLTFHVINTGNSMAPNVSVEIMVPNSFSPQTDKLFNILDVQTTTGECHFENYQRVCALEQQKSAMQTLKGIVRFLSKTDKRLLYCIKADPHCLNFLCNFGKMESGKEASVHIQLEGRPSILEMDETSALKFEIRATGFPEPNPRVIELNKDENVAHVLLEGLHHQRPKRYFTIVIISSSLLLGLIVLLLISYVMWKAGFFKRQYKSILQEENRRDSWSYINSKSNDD
Sequence of α4β1 (P05556 21-798): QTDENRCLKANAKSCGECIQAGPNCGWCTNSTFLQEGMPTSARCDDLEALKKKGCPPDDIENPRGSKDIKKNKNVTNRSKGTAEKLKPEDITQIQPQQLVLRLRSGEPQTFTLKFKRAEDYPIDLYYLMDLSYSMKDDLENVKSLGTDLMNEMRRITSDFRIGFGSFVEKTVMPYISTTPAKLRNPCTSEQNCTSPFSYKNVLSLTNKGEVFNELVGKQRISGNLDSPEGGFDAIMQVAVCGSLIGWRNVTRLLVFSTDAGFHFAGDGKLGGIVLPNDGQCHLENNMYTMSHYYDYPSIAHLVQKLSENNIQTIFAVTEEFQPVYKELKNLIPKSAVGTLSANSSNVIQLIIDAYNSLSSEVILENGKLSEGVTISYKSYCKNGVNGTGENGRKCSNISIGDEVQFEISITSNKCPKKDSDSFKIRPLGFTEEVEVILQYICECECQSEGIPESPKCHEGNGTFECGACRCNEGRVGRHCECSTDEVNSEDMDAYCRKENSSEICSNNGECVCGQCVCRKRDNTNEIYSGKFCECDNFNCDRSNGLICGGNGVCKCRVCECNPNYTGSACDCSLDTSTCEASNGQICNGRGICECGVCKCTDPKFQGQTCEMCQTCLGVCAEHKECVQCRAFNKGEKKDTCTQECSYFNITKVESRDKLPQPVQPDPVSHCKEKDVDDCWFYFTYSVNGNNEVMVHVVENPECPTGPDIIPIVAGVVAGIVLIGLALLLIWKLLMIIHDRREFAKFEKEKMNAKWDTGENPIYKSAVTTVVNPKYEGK
Sequence of α1β1 (P56199 29-1179): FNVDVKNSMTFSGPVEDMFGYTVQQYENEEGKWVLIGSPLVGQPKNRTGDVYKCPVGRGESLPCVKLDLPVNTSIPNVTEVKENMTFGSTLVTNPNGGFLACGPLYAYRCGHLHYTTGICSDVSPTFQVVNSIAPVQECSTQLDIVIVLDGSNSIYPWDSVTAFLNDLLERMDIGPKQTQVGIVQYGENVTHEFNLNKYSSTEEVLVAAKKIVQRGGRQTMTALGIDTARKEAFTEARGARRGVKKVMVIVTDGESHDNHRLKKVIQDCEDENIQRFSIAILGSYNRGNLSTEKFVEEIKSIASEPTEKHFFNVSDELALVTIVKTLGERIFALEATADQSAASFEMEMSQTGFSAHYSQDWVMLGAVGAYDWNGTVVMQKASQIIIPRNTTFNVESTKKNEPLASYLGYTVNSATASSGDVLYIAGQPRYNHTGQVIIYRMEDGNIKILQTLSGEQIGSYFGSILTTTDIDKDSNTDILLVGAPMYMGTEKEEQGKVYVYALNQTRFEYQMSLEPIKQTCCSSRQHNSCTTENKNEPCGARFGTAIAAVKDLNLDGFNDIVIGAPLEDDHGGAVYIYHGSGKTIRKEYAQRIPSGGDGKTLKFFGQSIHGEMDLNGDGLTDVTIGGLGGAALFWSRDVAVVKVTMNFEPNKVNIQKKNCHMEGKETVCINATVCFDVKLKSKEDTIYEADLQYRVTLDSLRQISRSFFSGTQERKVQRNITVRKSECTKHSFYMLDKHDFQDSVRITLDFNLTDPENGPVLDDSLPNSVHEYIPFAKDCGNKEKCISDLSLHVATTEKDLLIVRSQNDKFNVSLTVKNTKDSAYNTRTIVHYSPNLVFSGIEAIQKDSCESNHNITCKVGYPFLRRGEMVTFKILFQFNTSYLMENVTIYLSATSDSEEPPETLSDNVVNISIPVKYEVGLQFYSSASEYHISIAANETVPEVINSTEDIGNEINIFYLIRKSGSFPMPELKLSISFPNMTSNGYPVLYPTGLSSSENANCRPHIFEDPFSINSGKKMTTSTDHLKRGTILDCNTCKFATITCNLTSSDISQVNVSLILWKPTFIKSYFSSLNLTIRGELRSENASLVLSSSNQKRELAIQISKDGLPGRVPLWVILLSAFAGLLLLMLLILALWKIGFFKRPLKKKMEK
Sequence of α1β1 (P05556 21-798): as the sequence (P05556 21-798) above
T1 sequence (P17301 30-1181): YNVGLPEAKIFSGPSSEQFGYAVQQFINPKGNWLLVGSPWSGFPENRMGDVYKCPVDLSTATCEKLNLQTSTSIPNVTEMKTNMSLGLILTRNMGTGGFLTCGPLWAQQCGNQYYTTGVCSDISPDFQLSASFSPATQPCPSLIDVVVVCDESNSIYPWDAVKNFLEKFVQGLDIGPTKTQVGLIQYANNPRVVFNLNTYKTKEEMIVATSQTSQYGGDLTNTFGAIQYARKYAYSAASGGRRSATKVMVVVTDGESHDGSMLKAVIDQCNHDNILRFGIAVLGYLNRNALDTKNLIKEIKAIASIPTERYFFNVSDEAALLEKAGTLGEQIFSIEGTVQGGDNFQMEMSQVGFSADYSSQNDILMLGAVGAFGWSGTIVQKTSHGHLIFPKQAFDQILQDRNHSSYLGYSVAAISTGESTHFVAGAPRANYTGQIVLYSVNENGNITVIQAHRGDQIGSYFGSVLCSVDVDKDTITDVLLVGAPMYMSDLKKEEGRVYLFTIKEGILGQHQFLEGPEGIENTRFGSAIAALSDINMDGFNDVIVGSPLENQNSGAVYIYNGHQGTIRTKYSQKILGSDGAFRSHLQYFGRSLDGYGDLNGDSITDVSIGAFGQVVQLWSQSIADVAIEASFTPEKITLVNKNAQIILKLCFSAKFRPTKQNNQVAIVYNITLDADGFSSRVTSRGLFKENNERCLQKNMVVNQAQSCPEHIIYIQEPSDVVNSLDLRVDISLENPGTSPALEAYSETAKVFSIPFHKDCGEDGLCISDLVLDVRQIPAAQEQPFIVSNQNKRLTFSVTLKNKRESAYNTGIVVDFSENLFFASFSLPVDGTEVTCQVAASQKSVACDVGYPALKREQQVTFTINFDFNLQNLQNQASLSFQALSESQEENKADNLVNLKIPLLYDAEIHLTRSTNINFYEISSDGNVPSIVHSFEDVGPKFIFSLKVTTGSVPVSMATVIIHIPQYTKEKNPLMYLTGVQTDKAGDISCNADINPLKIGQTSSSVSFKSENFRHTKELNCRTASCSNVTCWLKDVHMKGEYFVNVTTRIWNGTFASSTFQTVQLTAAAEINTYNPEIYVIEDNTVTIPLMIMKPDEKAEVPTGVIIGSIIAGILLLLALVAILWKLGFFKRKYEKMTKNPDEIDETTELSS
T1 sequence (P05556 21-798): as the sequence (P05556 21-798) above
Description for α4β1: A direct binding assay may also be employed to quantitate the inhibitory activity of the compounds. In this assay, a VCAM-IgG fusion protein containing the first two immunoglobulin domains of VCAM (D1D2) attached above the hinge region of an IgG1 molecule (“VCAM 2D-IgG”), is conjugated to a marker enzyme, such as alkaline phosphatase (“AP”). […] The conjugation of that fusion to a marker enzyme is achieved by cross-linking methods well-known in the art.
The VCAM-IgG enzyme conjugate is then placed in the wells of a multi-well filtration plate, such as that contained in the Millipore Multiscreen Assay System (Millipore Corp., Bedford, Mass.). Varying concentrations of the test inhibitory compound are then added to the wells followed by addition of VLA-4-expressing cells. The cells, compound and VCAM-IgG enzyme conjugate are mixed together and allowed to incubate at room temperature. Following incubation, the wells are vacuum drained, leaving behind the cells and any bound VCAM. Quantitation of bound VCAM is determined by adding an appropriate calorimetric substrate for the enzyme conjugated to VCAM-IgG and determining the amount of reaction product. Decreased reaction product indicates increased binding inhibitory activity.
Samples were also evaluated for function using the VCAM-Ig direct binding assay. Details for the construction of the VCAM-Ig animal cell expression vector, the generation of a Chinese hamster ovary (CHO) cell line expressing VCAM-Ig, conjugation of the VCAM-Ig to alkaline phosphatase, and the development of a direct binding assay for characterizing α4β1 and α4β7 binding to VCAM-Ig were as previously described (see Lobb, R. R., et al. (1995) Cell Adhes. Commun. 3:385–397).
For these studies, a series of compounds based on compound E containing 0.35, 2, 5, 20, 30, and 50 kDa-mPEG was synthesized and tested for binding to α4β1 on Jurkat cells with VCAM-Ig as a reporter (see methods).

As for `Cc1ccccc1NC(=O)Nc1ccc(CC(=O)N(C)[C@@H](CC(C)C)C(=O)NCC[C@H](NC(=O)C2CCCN2S(=O)(=O)c2ccccc2)C(=O)O)cc1` (stereo partly drawn) [Compound B, 2S-[(1-benzenesulfonyl-pyrrolidine-2S-carbonyl)-amino]-4-[4-methyl-2S-(methyl-{2-[4-(3-o-tolyl-ureido)-phenyl]-acetyl}-amino)-pentanoylamino]-butyric acid], the IC50 against α2β1 was 5000 nM; against α1β1, greater than 10000 nM; on α4β1 (DBA IC50 100% rat plasma, 100% rat plasma), 13 nM; at α4β1 (DBA IC50 Ca2+Mg2+, Ca2+Mg2+), 2 nM; at α4β1 (DBA IC50 Mn2+, Mn2+), 1.2 nM. In addition, the half-life in data set [1] (iv) was 2.5 h. The compound further had a bioavailability in data set [1] (sc) of 21%.

As to `Cc1ccccc1NC(=O)Nc1ccc(CC(=O)N(C)[C@@H](CC(C)C)C(=O)NCC[C@H](NC(=O)[C@@H]2CCCN2S(=O)(=O)c2cc(Cl)cc(Cl)c2)C(=O)O)cc1` [Compound R, 2S-{[1-(3,5-dichloro-benzenesulfonyl)-pyrrolidine-2S-carbonyl]-amino}-4-[4-methyl-2S-(methyl-{2-[4-(3-o-tolyl-ureido)-phenyl]-acetyl}-amino)-pentanoylamino]-butyric acid], in data set [1] (iv, 1 mg/kg), the AUC came out at 2300 ng·h/mL, the Cmax is 13100 ng/mL, the time of peak concentration (Tmax) was 0 h and the distribution volume (Vd) worked out at 0.168 L/kg. Further, in data set [1] (iv, 1 mg/kg), the clearance was 7.1 mL/min/kg and the half-life is 1.1 h. Besides, in data set [1] (sc, 10 mg/kg), the AUC turned out to be 6100 ng·h/mL, the CL stood at 27.17 mL/min/kg, the Cmax is 780 ng/mL and the time to peak (Tmax) turned out to be 0.5 h. Besides, in data set [1] (sc, 10 mg/kg), the bioavailability was found to be 20%, the half-life is 2.7 h and the “time >100 ng/mL blood levels were maintained” value came out at 12 h. Further, in the data set with lymphocyte count, the “day by which lymphocyte levels returned to normal” value is no more than 2 days and the duration of lymphocytosis result is given as “one”. Besides, in the data set on EAE, the “mean paralytic score reached” value is recorded as 3.0.

What is called IC50 is the point on the concentration scale where inhibition reaches its midpoint. The half-life is the time in which the quantity being followed falls by half. Higher therefore signals slow decline. A word on the bioavailability: it is dose-corrected exposure relative to a reference, in per cent. Lower therefore signals poor availability. A word on the AUC: it is concentration integrated over time. Read a low AUC as low exposure. By Cmax is commonly meant the maximum level reached in the sampled fluid or tissue. A word on the Tmax: it is the time at which the peak concentration occurs. As usually defined, the Vd is the apparent volume that relates the amount in the body to the concentration in plasma or blood. Read a high Vd as extensive tissue distribution. Broadly, the clearance is the volume of plasma or blood freed of the substance per unit of time. A low value points to inefficient removal.
